Where two headings read alike, the source gives them in different places.
B1: Papain: Papain (CAS N. 9001-73-4), cysteine-protease from Carica papaya, activity greater than or equal to 2.5 FIP UI/mg (protein, UniProt P00784 134-345, looked up)
Papain: IPEYVDWRQKGAVTPVKNQGSCGSCWAFSAVVTIEGIIKIRTGNLNEYSEQELLDCDRRSYGCNGGYPWSALQLVAQYGIHYRNTYPYEGVQRYCRSREKGPYAAKTDGVRQVQPYNEGALLYSIANQPVSVVLEAAGKDFQLYRGGIFVGPCGNKVDHAVAAVGYGPNYILIKNSWGTGWGENGYIRIKRGTGNSYGVCGLYTSSFYPVKN

How the values were obtained:
[1] = tested on: Male mice of the ICR strain; assay: Diarrhoea induced by castor oil in mice; format: in vivo; conditions: oral; for effect on diarrhoea induced by castor oil (percentage of mice that exhibited diarrhoea at the second hour): 30 minutes before castor oil 0.2 ml/mouse, evaluated 2 hours after castor oil, vs control
Description: In the following tests, the effect of two formulations and their individual constituents was evaluated in order to determine a possible synergistic effect among the individual components on diarrhoea induced by castor oil.
Male mice of the ICR strain supplied by the company Charles River and weighing 20-25 g were used. The animals were housed in temperature-controlled rooms (temperature of 23±2° C., humidity of 50±2%, 12-hour light-dark cycles) and had free access to water and food, consisting of a standard diet supplied by the company Mucedola Mangimi (Settimo Milanese, Italy). All experiments were performed in observance of Legislative Decree no. 116 of 27 Jan. 1992 and according to the guidelines of the Council of the European Union (86/609/EEC and 2010/63/EU).
The technique of Borrelli et al. (Borrelli F, Capasso F, Capasso R, Ascione V, Aviello G, Longo R, Izzo A A (2006). “Effect of Boswellia serrata on intestinal motility in rodents: inhibition of diarrhoea without constipation” Br J Pharmacol 148:553-560) was used. In practical terms, the mice were fasted for a period of 12 hours and then isolated in individual cages provided with a mesh on the bottom, set 5 cm above a sheet of absorbent paper. This enabled inspection of the excreted faeces. 30 minutes after administration of the samples to be tested, the animals received 0.2 ml of castor oil by means of a gastric probe. The diarrhoea was evaluated 15 minutes after the administration of the cathartic agent and every 15 minutes until the second hour. […]
Two formulations (according to the invention) were evaluated, consisting, respectively, of activated charcoal, Carum carvi, papain, α-galactosidase and β-galactosidase (total formulation) and activated charcoal, Carum carvi and papain (partial formulation). […]
The results are expressed as the mean±standard error of the mean (S.E.M.). The difference between two means was evaluated by means of Student's t-test. […]

[2] = tested on: patients with lactose intolerance; conditions: cited from earlier work; for reduction in the hydrogen concentration compared to the placebo: p<0.001; for hydrogen concentration in expired air: placebo 51.46±16.12

| Molecule | effect on diarrhoea induced by castor oil (percentage of mice that exhibited diarrhoea at the second hour) [1] | reduction in the hydrogen concentration compared to the placebo ([2]; group A: 3000 U of lactase added to milk 10 hours prior to administration) | hydrogen concentration in expired air ([2]; group A: 3000 U of lactase added to milk 10 hours prior) | reduction in the hydrogen concentration compared to the placebo ([2]; group B: 6000 U of lactase added to milk 5 minutes prior to ingestion) | hydrogen concentration in expired air ([2]; group B: 6000 U of lactase added to milk 5 minutes prior) | cumulative quantity of expired hydrogen vs group C (placebo) ([2]; groups A and B) | dose at which the reduction of castor oil diarrhoea was significant ([1]; 2 hours after castor oil) |
| --- | --- | --- | --- | --- | --- | --- | --- |
| β-galactosidase | not capable of modifying the cathartic effect of the castor oil | 77% | 12.07±7.8 p.p.m. | 73% | 13.97±7.99 p.p.m. | significantly lower | – |
| B1 | significantly reduced diarrhoea | – | – | – | – | – | 30 mg/kg |
